From ChEMBL document CHEMBL1147399, “Two new sesquiterpene lactones from Ceiba pentandra” (1993)
Converted amounts (≈) assume the structure as drawn.

Legend:
Format in all cases: functional
Escherichia coli = test: Antibacterial activity against Escherichia coli ATCC 10536
Staphylococcus aureus = test: Antibacterial activity against Staphylococcus aureus ATCC 6538
Aspergillus niger = test: Antifungal activity against Aspergillus niger NRRL 530
Klebsiella pneumoniae = test: Antibacterial activity against Klebsiella pneumoniae ATCC 13883
Bacillus subtilis = test: Antibacterial activity against Bacillus subtilis ATCC 6633
Candida albicans = test: Antifungal activity against Candida albicans ATCC 10231

SMILES | MIC (Escherichia coli) | MIC (Staphylococcus aureus) | MIC (Aspergillus niger) | MIC (Klebsiella pneumoniae) | MIC (Bacillus subtilis) | MIC (Candida albicans)
COc1cc(C(C)C)c2cc(C)c(O)c3c2c1C(=O)O3 | > 1000 mg/L | 300 mg/L (≈ 1100 µM) | 250 mg/L (≈ 918 µM) | > 1000 mg/L | 350 mg/L (≈ 1290 µM) | 225 mg/L (≈ 826 µM)
COc1cc(C(C)C)c2cc(C)c(OC)c3c2c1C(=O)O3 | > 1000 mg/L | 275 mg/L (≈ 960 µM) | 200 mg/L (≈ 699 µM) | > 1000 mg/L | 250 mg/L (≈ 873 µM) | 175 mg/L (≈ 611 µM)
